How the values were obtained:
[1] = tested on: PANC-1 cells; assay: CaspaseGlo 3/7 apoptosis assay, PANC-1; type: cell-based, human; settings: 72 h
Method: (§1) 6 Effect of small-molecule modulators on gemcitabine-induced apoptosis and tumor growth of PDAC cells. […] After 2 h, gemcitabine (GEM) was added at increasing concentrations (10 and 25 nM) or not (−) for another incubation of 72 h. Subsequently, the luminescence-based caspase3/7 assay was performed. The activity of caspase 3/7 in treated cells was normalized to the activity measured in untreated cells (dark gray bar), which was set to 1 (mean SD, n = 6 for PANC-1 and n = 4 for PaTu8988T; *: p ≤ 0.05, **: p ≤ 0.01, ***: p ≤ 0.001, using the student t-test). […] After 24 h, gemcitabine (GEM, 1 μM) was added (+) or not (−) for another incubation of 48 h. Subsequently, the apoptotic cell fraction was quantified in % by flow cytometry using FITC-labeled Annexin V (AV) and propidium iodide (PI) staining (in B: mean ± SD, n = 6 for PANC-1 and n = 5 for PaTu8988T; **: p ≤ 0.01, ***: p ≤ 0.001, ****: p ≤ 0.0001, using the student t-test). […] Viable cells are AV/PI double-negative (AV–/PI–, lower left quadrant, Q4), early apoptotic cells are AV single-positive (AV+/PI– upper left quadrant, Q1), late apoptotic cells are AV/PI double-positive (AV+/PI+, upper right quadrant, Q2), and necrotic cells are PI single-positive (AV–/PI+, lower right quadrant, Q3). The sum of early and late apoptotic cell numbers ([…] in %) is indicated in red. D-G: The workflow of the PDAC xenograft experiments in mice is depicted in D. PANC-1 cells (2 × 10^6 cells/mouse) were subcutaneously (s.c.) injected in the right flank of female athymic nude mice. Small tumor nodules appeared 6 days post-engraftment. […] Tumor volumes were measured every second day using a digital caliper. […] At the end of the 2 weeks, mice were sacrificed and tumors were dissected (F).
(§2) For quantification of apoptosis using the CaspaseGlo 3/7 assay (Promega), PANC-1 and PaTu8988T cells were seeded in triplicates in white 96-well plate (5 × 10^3 cells/well) and cultured in the absence or presence of compounds. After 2 h, as soon as the cells had settled, gemcitabine was added or not, and cells were incubated for another 72 h. Subsequently, the caspase3/7 activity was measured using the luminescence-based CaspaseGLO-3/7 assay (Promega). To this end, the CaspaseGlo reagent was subsequently added to the cells at a 1:1 ratio and incubated at room temperature and under agitation for 30 min protected from light. The luminescence measurements were carried out using a microplate reader (Mithras LB 940, Berthold).

[2] = tested on: PaTu8988T cells; assay: CaspaseGlo 3/7 apoptosis assay, PaTu8988T; type: cell-based, human; settings: 72 h
Method: as §1, §2

[3] = tested on: PaTu8988T cells; assay: Annexin V/PI flow cytometry apoptosis assay, PaTu8988T; type: cell-based, human; settings: Homo sapiens, PaTu 8988t, 48 h; read-out: Q4, viable cells (AV–/PI–)
Method: 6 Effect of small-molecule modulators on gemcitabine-induced apoptosis and tumor growth of PDAC cells. […] Subsequently, the luminescence-based caspase3/7 assay was performed. The activity of caspase 3/7 in treated cells was normalized to the activity measured in untreated cells (dark gray bar), which was set to 1 (mean SD, n = 6 for PANC-1 and n = 4 for PaTu8988T; *: p ≤ 0.05, **: p ≤ 0.01, ***: p ≤ 0.001, using the student t-test). […] After 24 h, gemcitabine (GEM, 1 μM) was added (+) or not (−) for another incubation of 48 h. Subsequently, the apoptotic cell fraction was quantified in % by flow cytometry using FITC-labeled Annexin V (AV) and propidium iodide (PI) staining (in B: mean ± SD, n = 6 for PANC-1 and n = 5 for PaTu8988T; **: p ≤ 0.01, ***: p ≤ 0.001, ****: p ≤ 0.0001, using the student t-test). […] Viable cells are AV/PI double-negative (AV–/PI–, lower left quadrant, Q4), early apoptotic cells are AV single-positive (AV+/PI– upper left quadrant, Q1), late apoptotic cells are AV/PI double-positive (AV+/PI+, upper right quadrant, Q2), and necrotic cells are PI single-positive (AV–/PI+, lower right quadrant, Q3). The sum of early and late apoptotic cell numbers (Q2+Q3 in %) is indicated in red. D-G: The workflow of the PDAC xenograft experiments in mice is depicted in D. PANC-1 cells (2 × 10^6 cells/mouse) were subcutaneously (s.c.) injected in the right flank of female athymic nude mice. […] Tumor volumes were measured every second day using a digital caliper. […] At the end of the 2 weeks, mice were sacrificed and tumors were dissected (F).
For quantification of apoptosis by Fluorescence Activated Cell Sorting (FACS), PANC-1 and PaTu8988T cells were seeded in 6-well plates (250 × 10^3 cells/well) and cultured in the absence or presence of compounds. After 24 h, gemcitabine was added or not for another 48 h. After harvesting and washing, unfixed cells (0.5–1 × 10^6) were incubated with FITC-labeled Annexin V and/or PI (BD Pharmingen) according to the manufacturer’s instructions. All samples were analyzed using a BD FACSCalibur flow cytometer (BD Bioscience). Data were acquired using the CellQuestPro program and analyzed with the FlowJo (FlowJo LLC) software.
After 24 hours, gemcitabine (GEM, 1 µM) was added (+) or not
(-) for another incubation of 48 hours. Subsequently, the apoptotic cell fraction was assessed by flow cytometry using FITC-labeled Annexin V (AV) and propidium iodide (PI) staining and quantified in % (mean ± SD, n=3-4; ns: not significant, *: p ≤0.05, **: p ≤0.01, ***: p ≤0.001, ****: p ≤0.0001, using the student t-test).

[4] = tested on: PANC-1 xenografts; assay: PDAC xenograft mouse model, tumor growth; type: in vivo; settings: female athymic nude mice, intraperitoneal, 2 weeks; 150 mg/kg TR-07 daily, 10 mg/kg gemcitabine every second day; n = 5
[5] = compound 10 μM, after 2 h gemcitabine 10 and 25 nM
[6] = TR-07 10 μM or gemcitabine 10 and 25 nM

| Structure (SMILES) | gemcitabine-induced apoptosis, caspase 3/7 activity, co-treatment [1, 5] | gemcitabine-induced apoptosis, caspase 3/7 activity, co-treatment [2, 5] | apoptosis, caspase 3/7 activity, single agent [1, 6] | apoptosis, caspase 3/7 activity, single agent [2, 6] | viability at 10 µM [3] | tumor growth of PANC-1 xenografts [4] |
| --- | --- | --- | --- | --- | --- | --- |
| CC(C)Oc1ccc(-c2c[nH]cc2CN(C)CCN)cc1 [MS023, reference compound] | diminished | diminished | – | – | – | – |
| Nc1ccn([C@@H]2O[C@H](CO)[C@@H](O)C2(F)F)c(=O)n1 [gemcitabine, reference compound] | – | – | underwent apoptosis in a gemcitabine concentration-dependent manner | underwent apoptosis in a gemcitabine concentration-dependent manner | 78.6% | significantly reduced the tumor growth compared to the control mice |
